Measurements reported in patent US20230119502A1, “Collagen Nucleation Inhibitors” (Northeastern University, priority 2020, published 2023).
≈ marks a conversion by molar mass, not a printed value. Where two headings read alike, the source gives them in different places.

How the values were obtained:
[1] = target: pre-established 1 mg/mL collagen networks (Bos taurus, UniProt P02453+P02465); conditions: 37° C., 180 minutes, critical concentration
[2] = Baseline absorbance of the monosaccharide solutions without collagen; type: physicochemical; conditions: 313 nm, 37° C., no collagen, n=3
Excerpt: No collagen was present in these samples.

[3] = target: T1, pre-existing A546-labeled collagen network (Bos taurus, UniProt P02453+P02465); assay: Dual-fluorescence incorporation of soluble collagen into a pre-existing collagen network (colocalization, PCC); type: biochemical, bovine; conditions: 0.5 M GlcNAc, 0.5 M Gal or 1 M GlucA; 0.025 mg/mL collagen, 1 hour, 37° C., n=10 images
T1 construct: acetic acid-extracted bovine type I collagen; purchased Advanced Biomatrix 5026-1 KIT; host or cells: extracted from bovine tissue, then labelled in house
Excerpt: Collagen was fluorescently labeled by the following procedure. Collagen was amine-labeled with either Alexa Fluor 546 NHS Ester (Thermo Fisher Scientific, A20002) or Alexa Fluor 488 TFP (Thermo Fisher Scientific, A30005) according to the protocol of Paten et al. (Paten, J. A., et al., 2019). Collagen was labeled with A488 solution in a 5:1 molar ratio of A488:collagen and then purified using a 10,000 MWCO Slide-A-Lyzer dialysis cassette (Thermo Fisher Scientific, 66380). The same process was performed with A546 in a 5:1 molar ratio of A546:collagen. Prior to use, the collagen concentration was determined by a modified Lowry assay (Bio-Rad, DC-Protein Assay), and the labeling efficiency was determined according to previous reports (Paten, J. A., et al., 2019).
To test if the critical saccharide concentrations would allow the soluble collagen to incorporate into a pre-existing matrix, despite the observed nucleation inhibition, first a collagen network was polymerized labeled with a A546 (red) at 37° C. using the example procedure described above. Then a mixture of A488-labeled collagen (green) with a nucleation-inhibiting concentration of either GlcNAc, Gal, or GlucA was added to the pre-existing A546-labeled collagen network. In all cases, distinct fibrillar networks of A488-collagen after a 1 hour incubation and exhaustive rinsing to reduce non-specific binding was observed.
The ability for soluble collagen to incorporate into a pre-established collagen network in the presence of monosaccharides was investigated with fluorescent imaging using an inverted microscope (Nikon, ECLIPSE Ti2) with a 0.45 numerical aperture 20× objective (Nikon, MRH08230) and a CMOS camera (Andor, Zyla 4.2). […]
The Imaging and Colocalization Analysis of the Dual-Fluorescence collagen Network was conducted using the following procedure. For imaging the A546-labeled collagen network, the excitation signal (CoolLED, PE-300-W-L-SB-40) was passed through a 530±15 nm filter, and the emission signal was detected after passing through a 575±20 nm filter (Chroma Technology, 49014). […]

physchem = conditions: 37 °C, pH 5, aqueous buffer
[4] = target: T2, acetic acid-extracted bovine type I collagen (Bos taurus, UniProt P02453+P02465); type: biochemical; conditions: for critical concentration at which collagen assembly was completely inhibited / effect on collagen assembly kinetics and ODmax / lag time (lag phase at 30% assembly) / effect on collagen assembly: 1 mg/mL collagen; for critical concentration at which collagen assembly was completely inhibited: 37° C., pH 7.3; for effect on collagen assembly kinetics and ODmax: 0.125 M; for lag time (lag phase at 30% assembly): 0.25 M total saccharide; for effect on collagen assembly: 0.5 M (each component 0.5 M for Gal with acetic acid; 0.5 M total for ratios); for Rates of Collagen Assembly (KA), 30% to 70%: n=9, ± SD
T2 construct: acetic acid-extracted bovine type I collagen; purchased Advanced Biomatrix 5026-1 KIT
Description: In the experiments below, acetic acid-extracted bovine type I collagen (Advanced Biomatrix, 5026-1 KIT) was mixed with monosaccharide solutions, and/or acetic acid, such that the final collagen concentration was either 0.5 or 1 mg/mL and final saccharide concentration ranged from 0-1 M. Concentrated Tris-buffered saline (10×TBS) at 0.25 M trizma base (Sigma Aldrich, T4661) and 1.3 M sodium chloride
(Fisher Chemical, S271-500), was used as 10% of the solution volume to maintain a physiological pH and ionic strength, and 0.25 M sodium hydroxide was used for a final pH adjustment to 7.3. Any remaining volume in the solution recipes was fulfilled via the addition of deionized water.
Experiments included mixing collagen with a concentrated monosaccharide solution, neutralizing it, and measuring turbidity spectrophotometrically (313 nm) over the course of two hours. In the absence of monosaccharides, 1 mg/mL collagen fully polymerized within minutes, as expected (Williams, B. R., et al., 1978). […] The increased ODmax caused by the monosaccharides cannot be fully attributed to the contribution of the monosaccharides in solution (Table 2) (Hayashi & Nagai, 1972; Wood & Keech, 1960).
To study the assembly of collagen, the kinetics of collagen assembly in the presence of monosaccharides were monitored using a plate-reader spectrophotometer (Molecular Devices, SpectraMax M5). Working in triplicate, 100 μL of the mixed collagen and saccharide solution was pipetted into a 96-well plate and layered with 100 μL of silicone oil to prevent evaporation. […] Each test condition was repeated three times for a total of n=9 data sets.
The analyze the assembly kinetics, turbidity assays were analyzed and normalized between 0-1 using Equation 1, where OD represents the optical density.
To analyze the kinetics, 0% assembly was defined as the absorbance value when the minimum absorbance was recorded, and 100% corresponded to the maximum value. 10, 30, 70 and 90% absorbance and corresponding timepoints were calculated using linear interpolation between the two bounding data points. Error bars were calculated as standard error of the mean. Rate of assembly was determined by calculating the slope between 30% and 70% assembly for each data set.

[5] = carboxylic acid of GlucA; cited from earlier work
[6] = Stock solutions made near maximum solubility; conditions: 37 °C, pH 5, aqueous buffer
[7] = collagen 0.5 mg/mL, 0.125M saccharide
[8] = collagen 0.5 mg/mL, 0.25M saccharide
[9] = collagen 1 mg/mL, 0.125M saccharide
[10] = collagen 1 mg/mL, 0.25M saccharide

T2 sequence (P02453 162-1217 limits assumed): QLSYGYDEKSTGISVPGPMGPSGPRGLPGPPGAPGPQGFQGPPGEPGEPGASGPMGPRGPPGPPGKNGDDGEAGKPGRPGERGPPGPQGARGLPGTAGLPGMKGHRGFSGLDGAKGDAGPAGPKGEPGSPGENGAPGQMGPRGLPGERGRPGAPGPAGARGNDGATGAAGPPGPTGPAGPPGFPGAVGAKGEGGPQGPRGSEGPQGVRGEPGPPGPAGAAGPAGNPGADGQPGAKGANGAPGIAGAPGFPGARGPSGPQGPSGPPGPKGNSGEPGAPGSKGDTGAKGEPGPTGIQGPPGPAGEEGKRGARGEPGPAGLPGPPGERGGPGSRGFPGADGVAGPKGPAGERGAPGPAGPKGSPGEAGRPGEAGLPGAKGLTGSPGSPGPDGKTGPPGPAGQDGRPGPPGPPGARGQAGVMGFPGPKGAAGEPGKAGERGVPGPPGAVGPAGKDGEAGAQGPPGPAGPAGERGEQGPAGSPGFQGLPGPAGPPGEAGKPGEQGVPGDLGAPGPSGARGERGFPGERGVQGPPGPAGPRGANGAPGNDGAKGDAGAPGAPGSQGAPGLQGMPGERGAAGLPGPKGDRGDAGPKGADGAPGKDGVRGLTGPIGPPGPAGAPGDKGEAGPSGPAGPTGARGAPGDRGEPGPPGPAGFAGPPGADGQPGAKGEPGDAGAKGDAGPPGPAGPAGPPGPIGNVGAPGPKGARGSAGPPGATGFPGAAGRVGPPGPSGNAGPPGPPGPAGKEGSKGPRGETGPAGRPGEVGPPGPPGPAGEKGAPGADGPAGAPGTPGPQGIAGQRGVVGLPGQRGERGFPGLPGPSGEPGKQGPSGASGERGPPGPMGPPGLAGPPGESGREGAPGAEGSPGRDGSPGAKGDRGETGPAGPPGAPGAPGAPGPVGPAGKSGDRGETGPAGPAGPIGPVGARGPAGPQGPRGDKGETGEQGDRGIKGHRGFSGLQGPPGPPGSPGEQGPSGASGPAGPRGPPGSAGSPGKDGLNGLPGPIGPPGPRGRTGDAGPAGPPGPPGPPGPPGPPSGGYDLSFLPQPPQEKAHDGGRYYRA
T2 sequence (P02465 80-1117 limits assumed): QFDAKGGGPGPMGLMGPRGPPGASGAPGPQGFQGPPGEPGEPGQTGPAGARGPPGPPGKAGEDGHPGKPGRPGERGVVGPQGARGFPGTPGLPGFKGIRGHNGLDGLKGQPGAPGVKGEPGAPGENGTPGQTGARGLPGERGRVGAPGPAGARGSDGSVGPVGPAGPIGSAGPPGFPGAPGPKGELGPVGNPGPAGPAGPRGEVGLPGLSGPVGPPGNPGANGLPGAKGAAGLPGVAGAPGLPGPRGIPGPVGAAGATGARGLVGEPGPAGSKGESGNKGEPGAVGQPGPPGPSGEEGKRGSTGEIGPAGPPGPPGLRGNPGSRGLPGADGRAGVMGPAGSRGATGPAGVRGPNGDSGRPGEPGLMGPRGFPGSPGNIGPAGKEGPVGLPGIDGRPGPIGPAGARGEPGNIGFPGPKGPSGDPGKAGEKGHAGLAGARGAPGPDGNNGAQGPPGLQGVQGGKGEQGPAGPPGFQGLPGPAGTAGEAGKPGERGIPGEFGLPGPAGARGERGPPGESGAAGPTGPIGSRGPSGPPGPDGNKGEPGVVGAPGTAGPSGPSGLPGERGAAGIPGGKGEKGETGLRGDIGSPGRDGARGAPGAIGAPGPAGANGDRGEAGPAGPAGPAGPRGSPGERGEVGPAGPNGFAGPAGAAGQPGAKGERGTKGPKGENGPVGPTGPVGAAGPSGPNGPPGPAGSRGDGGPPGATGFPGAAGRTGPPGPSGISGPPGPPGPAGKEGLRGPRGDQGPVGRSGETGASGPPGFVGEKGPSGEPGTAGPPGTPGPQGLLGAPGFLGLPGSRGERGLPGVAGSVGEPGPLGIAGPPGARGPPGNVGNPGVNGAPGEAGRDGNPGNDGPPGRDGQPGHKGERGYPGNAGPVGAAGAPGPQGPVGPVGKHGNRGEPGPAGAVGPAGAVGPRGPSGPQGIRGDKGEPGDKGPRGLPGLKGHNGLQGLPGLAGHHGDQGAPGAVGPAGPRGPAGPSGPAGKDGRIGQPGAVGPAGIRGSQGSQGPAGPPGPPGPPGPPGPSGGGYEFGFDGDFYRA
T1 sequence (P02453 162-1217 limits assumed): as the sequence (P02453 162-1217 limits assumed) above
T1 sequence (P02465 80-1117 limits assumed): as the sequence (P02465 80-1117 limits assumed) above
pre-established 1 mg/mL collagen networks, sequence (P02453 162-1217 limits assumed): as the sequence (P02453 162-1217 limits assumed) above
pre-established 1 mg/mL collagen networks, sequence (P02465 80-1117 limits assumed): as the sequence (P02465 80-1117 limits assumed) above

SMILES | change in the collagen network under inverted microscope [1] | Baseline absorbance ([2]; 0.125M saccharide) | Baseline absorbance ([2]; 0.25M saccharide) | Baseline absorbance ([2]; 0.5M saccharide) | Pearson's correlation coefficient (PCC) of incorporated A488-collagen with pre-established network [3] | solubility (physchem) [mM] | critical concentration at which collagen assembly was completely inhibited [4] [M] | effect on collagen assembly kinetics and ODmax [4] | lag time (lag phase at 30% assembly) [4] [min] | effect on collagen assembly [4] | Rates of Collagen Assembly (KA), 30% to 70% [4, 7] [% per second] | Rates of Collagen Assembly (KA), 30% to 70% [4, 8] [% per second] | Rates of Collagen Assembly (KA), 30% to 70% [4, 9] [% per second] | Rates of Collagen Assembly (KA), 30% to 70% [4, 10] [% per second] | Baseline absorbance ([2]; 1M saccharide) | pKa [5] | Rates of Collagen Assembly (KA), 30% to 70% ([4]; collagen 0.5 mg/mL, 0.5M saccharide) [% per second] | Rates of Collagen Assembly (KA), 30% to 70% ([4]; collagen 1 mg/mL, 0.5M saccharide) [% per second] | solubility [6] [mM]
O=C[C@H](O)[C@@H](O)[C@@H](O)[C@H](O)CO [Gal, D(+)-galactose] | minimal to no change | 0.041 ± 0.001 | 0.043 ± 0.001 | 0.044 ± 0.001 | 0.53±0.11 | ~2000 (≈ 360 mg/mL) | 0.5 | a delay in the lag phase and growth phase and an increase in the maximum absorbance (ODmax) | 15 ± 0.6 | completely inhibited collagen assembly | 14.28 ± 1.48 | 7.22 ± 0.89 | 28.71 ± 1.54 | 15.96 ± 1.39 |  |  |  |  | 
CC(=O)N[C@H]1C(O)O[C@H](CO)[C@@H](O)[C@@H]1O (stereo partly drawn) [GlcNAc, N-acetyl-D-glucosamine] |  | 0.061 ± 0.001 | 0.074 ± 0.001 | 0.105 ± 0.001 | 0.66±0.10 | ~1000 (≈ 221 mg/mL) | 0.5 | a delay in the lag phase and growth phase and an increase in the maximum absorbance (ODmax) | 16 ± 2.5 |  | 13.32 ± 0.63 | 6.77 ± 0.31 | 17.91 ± 1.52 | 8.27 ± 0.54 |  |  |  |  | 
O.O=C[C@H](O)[C@@H](O)[C@H](O)[C@H](O)C(=O)[O-].[Na+] [GlucA, D-glucuronic acid sodium salt monohydrate] |  |  | 0.063 ± 0.000 | 0.082 ± 0.001 | 0.50±0.11 |  | 1 |  |  |  |  | 6.84 ± 0.47 |  | 13.83 ± 1.10 | 0.120 ± 0.000 | 3.2 | 10.69 ± 0.53 | 40.64 ± 2.59 | ~2000
CC(=O)O [acetic acid, reference compound] |  |  |  |  |  |  |  |  |  | little impact on the early kinetics but significantly reduced the steady-state absorbance |  |  |  |  |  |  |  |  | 
